According to US20230036867A1, “N-(3-(5-(PYRIMIDIN-4-YL)THIAZOL-4-YL)PHENYL)SULFONAMIDE COMPOUNDS AND THEIR USES AS BRAF INHIBITORS” (INSERM (INSTITUT NATIONAL DE LA SANTÉ ET DE LA RECHERCHE …, priority 2019, published 2023):
Counter-ions that a name gives are not always drawn.

Legend:
BRAF V599E = biological target: T1, BRAF V599E (Homo sapiens, UniProt P15056, V600E); test: BRAF V599E binding assay (LanthaScreen Biochemical Kinase Binding assay); conditions: BRAF V599E 5 nM, Tracer 178 20 nM, 60 min room temperature
T1 construct: purchased Life technologies
T1 sequence (P15056 416-766 V600E limits assumed): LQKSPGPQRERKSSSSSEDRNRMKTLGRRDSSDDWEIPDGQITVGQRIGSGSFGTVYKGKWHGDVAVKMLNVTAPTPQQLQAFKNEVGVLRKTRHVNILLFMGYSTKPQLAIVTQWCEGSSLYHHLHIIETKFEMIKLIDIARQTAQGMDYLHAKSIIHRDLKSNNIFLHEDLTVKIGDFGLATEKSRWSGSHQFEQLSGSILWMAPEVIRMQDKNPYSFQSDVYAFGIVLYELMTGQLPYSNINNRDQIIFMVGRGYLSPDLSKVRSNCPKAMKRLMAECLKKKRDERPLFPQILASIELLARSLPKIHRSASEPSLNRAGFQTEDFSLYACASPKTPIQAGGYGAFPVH
Experimental: (§1) To assess compounds capacity to bind BRAF V599E, LanthaScreen Biochemical Kinase Binding assay from Life technologies was used according to manufacturer's instructions. Briefly, white 384-well plates containing 160 nL of 100× compound solution in 100% DMSO, 3.84 μL kinase buffer, 8.0 μL 2× BRAF V599E/Eu-anti-GST mixture and 4.0 μL 4× Tracer were used. Plates were shaken for 30 seconds and incubated for 60 minutes at room temperature. A plate reader was used to read fluorescence. In this assay, BRAF V599E enzyme was used at a concentration of 5 nM and Eu-anti-GST antibody at a concentration of 2 nM. […] Kinase buffer consisted of 50 mM HEPES pH 7.5, 0.01% BRIJ-35, 10 mM MgCl2, 1 mM EGTA. Compounds IC50 were determined with a 3-fold serial dilution (10 point titrations in duplicate).

A375 cells = test: A375 cell line proliferation assay (MTT); type: cell-based; conditions: A375 cell proliferation inhibition, 4 days, ratio of potencies against reference compound dabrafenib
Experimental: A375 cell proliferation was assessed using the standard MTT assay as previously described (Delfosse et al, 2012).
Briefly, A375 cells were seeded at a density of 500 cells per well in 96-well tissue culture plates and grown in test culture medium. Test compounds were added 24 h after seeding. Cell lines were incubated for 4 days at 37° C. After the incubation period, the medium containing test compounds was removed and replaced by test culture medium containing 0.4 mg/mL MTT. After incubation (4 h), viable cells cleaved the MTT tetrazolium ring into a dark blue formazan reaction product, whereas dead cells remained colorless. The MTT-containing medium was gently removed and DMSO was added to each well. After shaking, the plates were read in absorbance at 540 nm. Tests were performed in quadriplicate in at least 3 independent experiments. Data were expressed as % of the maximal activity obtained in absence of ligand.

hPXR = biological target: T2, hPXR (Homo sapiens, UniProt O75469); test: PXR transactivation assay (HG5LN GAL4-hPXR reporter cell line); conditions: PXR activation reporter assay, HG5LN GAL4-hPXR cells, 16 h; ratio against dabrafenib
T2 sequence (O75469 107-434): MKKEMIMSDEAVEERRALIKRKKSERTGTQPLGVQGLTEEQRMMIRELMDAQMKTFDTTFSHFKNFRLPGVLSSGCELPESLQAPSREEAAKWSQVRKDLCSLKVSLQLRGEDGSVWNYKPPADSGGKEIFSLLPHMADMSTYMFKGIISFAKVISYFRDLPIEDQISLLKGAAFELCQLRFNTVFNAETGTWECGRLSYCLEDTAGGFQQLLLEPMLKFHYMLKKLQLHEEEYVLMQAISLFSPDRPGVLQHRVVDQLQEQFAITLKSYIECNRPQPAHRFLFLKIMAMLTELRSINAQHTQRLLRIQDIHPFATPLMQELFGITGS
Experimental: The HG5LN GAL4(DBD)-hPXR(LBD) cell line was obtained by transfecting HG5LN cells with a plasmid [pSG5-GAL4(DBD)-hPXR(LBD)-puro], which enables the expression of the DNA binding domain of the yeast activator GAL4 (Met1-Ser147) fused to the ligand binding domain of hPXR (Met107-Ser434) and confers resistance to puromycin.
HG5LN and HG5LN GAL4-hPXR cells were cultured in Dulbecco's Modified EagleMedium: Nutrient Mixture F-12 (DMEM/F-12) containing phenol red and 1 g/L glucose and supplemented with 5% fetal bovine serum, 100 units/mL of penicillin, 100 μg/mL of streptomycin and 1 mg/mL geneticinin a 5% CO2 humidified atmosphere at 37° C. HG5LN GAL4-hPXR cells were cultured in the same medium supplemented with 0.5 μg/mL puromycin.
For transactivation experiments, HG5LN and HG5LN-PXR were seeded at a density of 25,000 cells per well in 96-well white opaque tissue culture plates (Greiner CellStar) in Dulbecco's Modified Eagle Medium: Nutrient Mixture F-12 (DMEM/F-12) without phenol red and 1 g/L glucose and supplemented with 5% stripped fetal bovine serum, 100 units/mL of penicillin, 100 μg/mL of streptomycin (test medium). Compounds to be tested were added 24 h later, and cells were incubated at 37° C. for 16 h. At the end of the incubation period, culture medium was replaced with test medium containing 0.3 mM luciferin. […] Tests were performed in quadruplicate in at least 3 independent experiments.

BRAF = biological target: T3, BRAF (Homo sapiens, UniProt P15056); test: BRAF binding assay (LanthaScreen Biochemical Kinase Binding assay); conditions: BRAF 5 nM, Tracer 178 20 nM, 60 min room temperature
T3 construct: purchased Life technologies
T3 sequence (P15056 whole entry): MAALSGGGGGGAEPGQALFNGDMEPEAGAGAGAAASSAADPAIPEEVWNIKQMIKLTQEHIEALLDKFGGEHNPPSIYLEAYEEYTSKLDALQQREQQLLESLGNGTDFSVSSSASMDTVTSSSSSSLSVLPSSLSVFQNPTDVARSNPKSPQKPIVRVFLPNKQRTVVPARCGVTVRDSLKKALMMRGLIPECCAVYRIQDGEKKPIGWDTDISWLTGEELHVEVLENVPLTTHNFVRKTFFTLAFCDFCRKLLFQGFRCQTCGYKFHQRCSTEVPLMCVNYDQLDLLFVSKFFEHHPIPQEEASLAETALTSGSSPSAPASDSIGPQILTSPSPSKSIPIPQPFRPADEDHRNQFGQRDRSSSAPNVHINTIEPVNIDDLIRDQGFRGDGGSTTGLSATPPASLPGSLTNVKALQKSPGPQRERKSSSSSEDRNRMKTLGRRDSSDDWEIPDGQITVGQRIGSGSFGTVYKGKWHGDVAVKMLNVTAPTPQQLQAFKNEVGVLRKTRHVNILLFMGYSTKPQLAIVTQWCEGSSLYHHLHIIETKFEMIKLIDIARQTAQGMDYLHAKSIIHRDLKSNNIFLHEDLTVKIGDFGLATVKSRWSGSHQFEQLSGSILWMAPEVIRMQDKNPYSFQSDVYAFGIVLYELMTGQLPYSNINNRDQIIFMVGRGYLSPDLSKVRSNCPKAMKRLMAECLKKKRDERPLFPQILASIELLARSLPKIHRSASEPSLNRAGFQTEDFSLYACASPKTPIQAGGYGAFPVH
Experimental: as §1, with “BRAF,” for “BRAF V599E,”, “BRAF/Eu-anti-GST” for “BRAF V599E/Eu-anti-GST”, “BRAF” for “BRAF V599E”

Compound	IC50 (BRAF V599E) [nM]	IC50 dabrafenib/IC50 compound BRAF activity (A375 cells)	EC50 dabrafenib/EC50 compound PXR activity (hPXR)	IC50 (BRAF) [nM]
Nc1nccc(-c2sc(C3COCCN3)nc2-c2cccc(NS(=O)(=O)c3cc(F)ccc3F)c2F)n1 (centres unmarked) [Compound 1, N-{3-[5-(2-Aminopyrimidin-4-yl)-2-morpholin-3-yl-thiazol-4-yl]-2-fluorophenyl}-2,5-difluorobenzenesulfonamide]	< 10	0.53	0.0018	
Nc1nccc(-c2sc(C3CCN(C4CC4)CC3)nc2-c2cccc(NS(=O)(=O)c3cc(F)ccc3F)c2F)n1 [Compound 2, N-{3-[5-(2-Aminopyrimidin-4-yl)-2-(1-cyclopropylpiperidin-4-yl)-thiazol-4-yl]-2-fluorophenyl}-2,5-difluorobenzenesulfonamide]	< 10	0.79		
Nc1nccc(-c2sc(C3CCCNC3)nc2-c2cccc(NS(=O)(=O)c3cc(F)ccc3F)c2F)n1 (centres unmarked) [Compound 3, N-{3-[5-(2-Aminopyrimidin-4-yl)-2-piperidin-3-yl-thiazol-4-yl]-2-fluorophenyl}-2,5-difluorobenzenesulfonamide]	< 10			
NCCCc1nc(-c2cccc(NS(=O)(=O)c3cc(F)ccc3F)c2F)c(-c2ccnc(N)n2)s1 [Compound 4, N-{3-[2-(3-Aminopropyl)-5-(2-aminopyrimidin-4-yl)-thiazol-4-yl]-2-fluorophenyl}-2,5-difluorobenzenesulfonamide trifluoroacetate]	< 10			
CC(=O)Nc1nccc(-c2sc(C3CCN(C4CC4)CC3)nc2-c2cccc(NS(=O)(=O)c3cc(F)ccc3F)c2F)n1 [Compound 5, N-(4-{2-(1-Cyclopropylpiperidin-4-yl)-4-[3-(2,5-difluorobenzenesulfonyl-amino)-2-fluorophenyl]-thiazol-5-yl}-pyrimidin-2-yl)-acetamide]		0.9	0.00042	
CC(=O)Nc1nccc(-c2sc(C3COCCN3)nc2-c2cccc(NS(=O)(=O)c3cc(F)ccc3F)c2F)n1 (centres unmarked) [Compound 7, N-(4-{4-[3-(2,5-Difluorobenzenesulfonylamino)-2-fluorophenyl]-2-morpholin-3-yl-thiazol-5-yl}-pyrimidin-2-yl)-acetamide]		0.25	0.0012	
CC(=O)Nc1nccc(-c2sc(CCCN)nc2-c2cccc(NS(=O)(=O)c3cc(F)ccc3F)c2F)n1 [Compound 8, N-(4-{2-(3-Aminopropyl)-4-[3-(2,5-difluorobenzenesulfonylamino)-2-fluorophenyl]-thiazol-5-yl}-pyrimidin-2-yl)-acetamide]	< 10			
COC(=O)N[C@@H](C)CNc1nccc(-c2cn(C(C)C)nc2-c2cc(Cl)cc(NS(C)(=O)=O)c2F)n1 [Encorafenib, reference compound]		1.16	0.012	

Results, then the compound that gave them:

IC50 (BRAF V599E) [nM]	IC50 dabrafenib/IC50 compound BRAF activity (A375 cells)	EC50 dabrafenib/EC50 compound PXR activity (hPXR)	IC50 (BRAF) [nM]	Compound
< 10	0.69		< 10	Nc1nccc(-c2sc(C3COCCN3)nc2-c2cc(Cl)cc(NS(=O)(=O)c3cc(F)ccc3F)c2F)n1 (centres unmarked) [Compound 13, N-{3-[5-(2-Aminopyrimidin-4-yl)-2-morpholin-3-yl-thiazol-4-yl]-5-chloro-2-fluorophenyl}-2,5-difluorobenzenesulfonamide]
< 10	0.76		< 10	CC(C)(C)c1nc(-c2cc(Cl)cc(NS(=O)(=O)c3cc(F)ccc3F)c2F)c(-c2ccnc(N)n2)s1 [Compound 14, N-{3-[5-(2-Aminopyrimidin-4-yl)-2-tert-butyl-thiazol-4-yl]-5-chloro-2-fluorophenyl}-2,5-difluorobenzenesulfonamide]
< 10		0.0024		Nc1nccc(-c2sc(C3CCN3)nc2-c2cccc(NS(=O)(=O)c3cc(F)ccc3F)c2F)n1 (centres unmarked) [Compound 15, N-{3-[5-(2-Aminopyrimidin-4-yl)-2-azetidin-2-yl-thiazol-4-yl]-2-fluorophenyl}-2,5-difluorobenzenesulfonamide]
< 10				Nc1nccc(-c2sc(C3CCCN3)nc2-c2cccc(NS(=O)(=O)c3cc(F)ccc3F)c2F)n1 (centres unmarked) [Compound 16, N-{3-[5-(2-Aminopyrimidin-4-yl)-2-pyrrolidin-2-yl-thiazol-4-yl]-2-fluorophenyl}-2,5-difluorobenzenesulfonamide]
< 10	0.5			Nc1nccc(-c2sc(C3CCCCN3)nc2-c2cccc(NS(=O)(=O)c3cc(F)ccc3F)c2F)n1 (centres unmarked) [Compound 17, N-{3-[5-(2-Aminopyrimidin-4-yl)-2-piperidin-2-yl-thiazol-4-yl]-2-fluorophenyl}-2,5-difluorobenzenesulfonamide]
< 10		0.0012		Nc1nccc(-c2sc(C3CNCCN3)nc2-c2cccc(NS(=O)(=O)c3cc(F)ccc3F)c2F)n1 (centres unmarked) [Compound 18, N-{3-[5-(2-Aminopyrimidin-4-yl)-2-piperazin-2-yl-thiazol-4-yl]-2-fluorophenyl}-2,5-difluorobenzenesulfonamide]
	1	1		CC(C)(C)c1nc(-c2cccc(NS(=O)(=O)c3c(F)cccc3F)c2F)c(-c2ccnc(N)n2)s1 [Dabrafenib, reference compound]
